Read-outs that look alike come from different tables or passages of the source.
Legend:
rat IP [1] = target: T1, rat IP (Rattus norvegicus, UniProt P43253); assay: Radioligand binding, rat IP ([3H]-iloprost); set-up: expressed in transfected cells; host or cells: CHO-K1 (crude membranes)
Description: (§1) CHO-K1 cells expressing recombinant IP receptors were harvested, washed with ice-cold phosphate buffered saline, pH 7.4 (PBS), and then centrifuged at 48 000g for 20 min at 4 °C. The resulting cell pellet was then resuspended in ice-cold PBS containing 20 mM HEPES, pH 7.4, and 0.1 mM EDTA, homogenized on ice using a Brinkman Polytron, and centrifuged (48 000g for 20 min at 4 °C). This resuspension and centrifugation process was repeated one further time. Crude membrane pellets were stored at −80 °C until used for radioligand binding assays.
(§2) Assay incubations were terminated by rapid filtration through PerkinElmer GF/C filtration plates pretreated with 0.3% PEI, under vacuum pressure using a 96-well Packard filtration apparatus, followed by multiple washes with ice-cold wash buffer (PBS containing 20 mM HEPES and 0.1 mM EDTA, pH 7.4). Plates were then dried at 45 °C for a minimum of 2 h. Finally, 25 μL of BetaScint scintillation cocktail was added to each well and plates were counted in a Packard TopCount scintillation counter. In each competition study, test compounds were dosed at 10 concentrations with triplicate determinations at each test concentration. A reference compound, typically iloprost, was included in every runset for quality control purposes.

rat IP [2] = target: T1, rat IP; assay: HTRF cAMP assay, recombinant rat IP receptor; type: cell-based; set-up: expressed in transfected cells; details: for EC50: HTRF (cAMP) rat IP receptor assay, mean of at least three determinations; for Emax: read-out: rIP % IA
EP2 = EP2 (Homo sapiens, UniProt P43116); assay: cAMP HTRF agonist assay, EP2; type: cell-based; details: for agonist activity at EP2: HTRF cAMP functional assay
Excerpt: Table Sup2: Data with some comparator compounds in functional assays. […]

human DP1 receptor = target: T2, human DP1 receptor (Homo sapiens, UniProt Q13258); assay: HTRF cAMP assay, recombinant human DP1 receptor in CHO-K1 cells; type: cell-based; details: for Emax: CHO-K1, intrinsic activity relative to 1 μM PGD2, read-out: hDP1 % IA; for EC50: HTRF (cAMP) human DP1 receptor assay, mean of at least three determinations, read-out: EC50 hDP1; for DP1 % I.A: cAMP HTRF agonist assay (Gs), Table Sup2
T2 construct: expressed in transfected cells
T2 sequence (Q13258 1-359): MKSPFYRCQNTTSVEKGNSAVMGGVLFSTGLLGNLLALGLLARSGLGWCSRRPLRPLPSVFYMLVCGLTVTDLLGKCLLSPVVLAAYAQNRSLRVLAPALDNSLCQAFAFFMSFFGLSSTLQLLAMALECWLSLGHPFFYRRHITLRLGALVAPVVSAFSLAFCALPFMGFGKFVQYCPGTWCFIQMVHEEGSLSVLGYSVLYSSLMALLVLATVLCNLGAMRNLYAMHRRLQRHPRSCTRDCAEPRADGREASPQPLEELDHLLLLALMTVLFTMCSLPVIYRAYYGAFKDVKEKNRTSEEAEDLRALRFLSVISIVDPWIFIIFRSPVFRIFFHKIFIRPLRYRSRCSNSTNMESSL

IP = IP (Homo sapiens, UniProt P43119); assay: HTRF cAMP assay, recombinant human IP receptor stably expressed in CHO-K1 cells; type: cell-based; set-up: expressed in transfected cells
dog IP = dog IP (Canis lupus familiaris, UniProt A0A8I3MUB8); assay: Radioligand binding, dog IP ([3H]-iloprost)
Description: as §1, §2

EP3v6 = target: T3, EP3v6 (Homo sapiens, UniProt P43115); assay: Radioligand binding, EP3v6 ([3H]-PGE2); set-up: purchased MDS Pharma (Taiwan) and CEREP (France), contract assays; details: for Ki: cloned human receptor
T3 sequence (P43115 1-374 isoform P43115-4): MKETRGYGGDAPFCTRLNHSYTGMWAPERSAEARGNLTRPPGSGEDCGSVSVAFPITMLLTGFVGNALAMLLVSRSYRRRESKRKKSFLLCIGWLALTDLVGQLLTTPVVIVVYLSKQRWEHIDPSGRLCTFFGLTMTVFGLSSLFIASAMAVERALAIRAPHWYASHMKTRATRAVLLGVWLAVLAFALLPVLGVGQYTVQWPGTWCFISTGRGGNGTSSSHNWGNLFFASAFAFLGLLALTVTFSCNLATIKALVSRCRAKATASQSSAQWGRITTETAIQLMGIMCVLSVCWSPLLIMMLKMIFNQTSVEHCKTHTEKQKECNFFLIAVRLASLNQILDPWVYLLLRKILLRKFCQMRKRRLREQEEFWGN
Description: Additional (non-IP) receptor binding assays were carried out by MDS Pharma (Taiwan) and CEREP (France).

[3] = read-out: Ki dog IP ([3H]-iloprost)

Chain of dog IP (A0A8I3MUB8 1-381): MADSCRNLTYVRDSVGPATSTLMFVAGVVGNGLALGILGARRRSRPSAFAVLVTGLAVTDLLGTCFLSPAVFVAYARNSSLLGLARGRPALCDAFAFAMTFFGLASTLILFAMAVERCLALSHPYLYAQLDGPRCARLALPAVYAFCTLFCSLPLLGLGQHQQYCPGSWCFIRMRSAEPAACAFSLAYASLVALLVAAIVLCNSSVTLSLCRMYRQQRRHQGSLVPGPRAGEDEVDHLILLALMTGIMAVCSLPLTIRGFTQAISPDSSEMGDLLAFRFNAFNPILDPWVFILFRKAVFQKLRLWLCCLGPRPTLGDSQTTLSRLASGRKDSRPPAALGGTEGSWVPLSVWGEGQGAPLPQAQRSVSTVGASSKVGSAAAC
T1 sequence (P43253 whole entry): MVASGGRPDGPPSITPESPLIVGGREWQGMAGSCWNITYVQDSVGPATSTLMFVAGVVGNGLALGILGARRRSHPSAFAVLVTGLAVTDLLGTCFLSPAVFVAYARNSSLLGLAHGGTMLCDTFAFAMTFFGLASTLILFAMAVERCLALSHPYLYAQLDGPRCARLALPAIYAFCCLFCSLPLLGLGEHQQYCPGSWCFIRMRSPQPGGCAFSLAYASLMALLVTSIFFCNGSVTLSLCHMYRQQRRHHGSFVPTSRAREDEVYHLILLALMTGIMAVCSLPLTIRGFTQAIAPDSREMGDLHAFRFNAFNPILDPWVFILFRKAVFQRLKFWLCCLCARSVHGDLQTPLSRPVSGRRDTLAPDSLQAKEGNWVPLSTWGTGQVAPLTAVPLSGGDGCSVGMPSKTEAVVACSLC
Chain of EP2 (P43116 whole entry): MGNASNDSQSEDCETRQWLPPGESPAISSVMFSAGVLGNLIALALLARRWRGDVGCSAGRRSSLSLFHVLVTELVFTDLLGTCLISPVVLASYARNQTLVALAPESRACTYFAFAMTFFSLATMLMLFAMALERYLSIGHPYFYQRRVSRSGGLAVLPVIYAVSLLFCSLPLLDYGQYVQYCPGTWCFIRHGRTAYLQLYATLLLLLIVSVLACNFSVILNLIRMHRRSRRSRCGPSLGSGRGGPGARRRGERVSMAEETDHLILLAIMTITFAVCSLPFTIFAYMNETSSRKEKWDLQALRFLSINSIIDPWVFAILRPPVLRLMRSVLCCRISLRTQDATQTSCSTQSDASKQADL
Chain of IP (P43119 whole entry): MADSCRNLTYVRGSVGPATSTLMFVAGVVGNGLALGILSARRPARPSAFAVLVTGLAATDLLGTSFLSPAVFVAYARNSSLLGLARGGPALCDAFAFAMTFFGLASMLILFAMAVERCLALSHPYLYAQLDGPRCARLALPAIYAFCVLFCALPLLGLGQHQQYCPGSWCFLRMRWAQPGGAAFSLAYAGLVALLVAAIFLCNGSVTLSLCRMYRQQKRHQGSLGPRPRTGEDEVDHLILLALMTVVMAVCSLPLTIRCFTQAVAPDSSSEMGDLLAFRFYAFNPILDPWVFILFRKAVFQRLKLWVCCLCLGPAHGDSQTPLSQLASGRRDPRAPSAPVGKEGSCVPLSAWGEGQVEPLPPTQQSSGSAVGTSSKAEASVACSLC

Row | Compound | Ki (rat IP [1]) [µM] | EC50 (rat IP [2]) [µM] | Emax (rat IP [2]) [%] | agonist activity at EP2 (EP2) | EC50 (EP2; cAMP HTRF agonist assay) [µM] | Emax (human DP1 receptor) [%] | EC50 (human DP1 receptor) [µM] | DP1 % I.A (human DP1 receptor) [%] | Emax (IP; CHO-K1, read-out: hIP % IA) [%] | Ki (dog IP; [3]) [µM] | Ki (EP3v6) [µM] | EP2 % I.A (EP2; cAMP HTRF agonist assay) [%] | Ki (dog IP) [µM] | Emax (IP; CHO-K1; read-out: hIP % IA) [%] | EC50 (IP; HTRF (cAMP) human IP receptor assay; mean of at least three determinations) [µM] | EP3/IP binding selectivity ratio (EP3v6; human EP3v6 Ki versus human IP Ki)
1 | O=C(O)COC[C@H]1CC[C@H](COC(=O)N(c2ccccc2)c2ccc(Cl)cc2)CC1 [5c, Sodium 2-(((1r,4r)-4-(((4-Chlorophenyl)(phenyl)carbamoyloxy)methyl)cyclohexyl)methoxy)acetate] | 0.076 | 0.53 | 88 | no significant agonist activity | > 10 | 52 | 0.85 | 52 | 85 | 0.256 | 0.143 |  |  |  |  | 
2 | CC#CCC(C)[C@H](O)/C=C/[C@@H]1[C@H]2C/C(=C/CCCC(=O)O)C[C@H]2C[C@H]1O (stereo partly drawn) [iloprost] | 0.001 | 0.00069 | 99 |  | 0.144 | 42 | 0.147 | 42 | 101 |  | 3.7 | 110 | 0.0017 |  |  | 
3 | O=C(O)COC[C@H]1CC[C@H](COC(=O)N(c2ccccc2)c2cccc(F)c2)CC1 [5g, 2-(((1r,4r)-4-(((3-Fluorophenyl)(phenyl)carbamoyloxy)methyl)cyclohexyl)methoxy)acetic Acid] | 0.051 | 0.284 | 83 | no significant agonist activity |  | 61 | 2.76 |  |  | 0.183 | 0.21 |  |  | 85 | 0.0087 | 30- to 50 fold
